Test results as given in US10246456B2, “IRAK4 inhibiting agents” (BIOGEN MA INC., priority 2014, dated 2019).
“And” between values parts separate entries of the source, which are not always exact repeats. Equal entries are not always repeated.

Molecular target: IRAK4 (Homo sapiens (Human), UniProt Q9NWZ3)
Assay: IRAK-4 AlphaScreen biochemical kinase assay
Conditions: 1 nM IRAK4, 1 mM ATP, 3.5 h at RT
Procedure: The biochemical assay is in a AlphaScreen format. The kinase reaction is based on the IRAK-4 phosphorylation of a biotin labeled peptide. The phosphopeptide is incubated with anti-phosphothreonine antibody as well as streptavidin- and protein A-coated beads. Binding of the protein-A coated beads to the antibody and the streptavidin beads to the peptide, leads to an energy transfer from one bead to the other, ultimately producing a luminescent/fluorescent signal.

IRAK4, sequence (Q9NWZ3 whole entry, species assumed): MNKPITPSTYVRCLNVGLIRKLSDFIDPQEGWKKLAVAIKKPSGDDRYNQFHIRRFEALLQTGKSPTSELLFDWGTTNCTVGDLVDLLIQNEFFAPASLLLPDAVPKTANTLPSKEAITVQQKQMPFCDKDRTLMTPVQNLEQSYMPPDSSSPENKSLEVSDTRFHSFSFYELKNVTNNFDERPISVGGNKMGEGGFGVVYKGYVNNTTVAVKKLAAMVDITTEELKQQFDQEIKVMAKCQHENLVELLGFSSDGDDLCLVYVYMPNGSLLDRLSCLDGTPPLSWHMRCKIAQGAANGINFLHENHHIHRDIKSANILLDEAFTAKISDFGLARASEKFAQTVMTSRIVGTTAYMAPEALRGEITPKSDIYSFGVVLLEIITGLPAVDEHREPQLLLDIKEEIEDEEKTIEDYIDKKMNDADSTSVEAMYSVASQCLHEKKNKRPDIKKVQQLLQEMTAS

`COc1cc(-c2cccc(C(C)N)n2)cc2c1cnn2-c1cccc(C)n1` (stereo not drawn) [Example 246, 1-(6-(4-methoxy-1-(6-methylpyridin-2-yl)-1H-indazol-6-yl)pyridin-2-yl)ethanamine] and `Cc1cccc(-n2ncc3ccc(-c4cccc(C(C)N)n4)cc32)n1` (stereo not drawn) [Example 55, 1-(6-(1-(6-methylpyridin-2-yl)-1H-indazol-6-yl)pyridin-2-yl)ethanamine] cannot be ordered by IC50: under 100 nM for the first, under 100 nM for the second.

First: Cc1cccc(-n2cc3c(CN)cc(-c4cccc(C(C)N)n4)cc3n2)n1 (stereo not drawn) [Example 215, 1-(6-(4-(aminomethyl)-2-(6-methylpyridin-2-yl)-2H-indazol-6-yl)pyridin-2-yl)ethanamine]
Second: Cc1cccc(-n2ncc3c(-c4ncc[nH]4)cc(-c4cccc(C(C)N)n4)cc32)n1 (stereo not drawn) [Example 295, 1-(6-(4-(1H-imidazol-2-yl)-1-(6-methylpyridin-2-yl)-1H-indazol-6-yl)pyridin-2-yl)ethanamine]
The IC50 of the first is higher: 1000 to 10000 nM for the first, under 100 nM for the second.

Compared with `Nc1cncc(-c2ccc3cnn(-c4cccc(C5CCCC5)n4)c3c2)c1` [Example 205, 5-(1-(6-cyclopentylpyridin-2-yl)-1H-indazol-6-yl)pyridin-3-amine], `Nc1cncc(-c2ccc3cnn(-c4cccc(C5CC5)n4)c3c2)c1` [Example 27, 5-(1-(6-cyclopropylpyridin-2-yl)-1H-indazol-6-yl)pyridin-3-amine] is lower in IC50: over 10000 nM for the first, under 100 nM for the second.

`Nc1cccc(-c2ccc3cnn(-c4cccc(C(F)(F)F)n4)c3c2)c1` [Example 25, 3-(1-(6-(trifluoromethyl)pyridin-2-yl)-1H-indazol-6-yl)aniline] and `CNC(C)c1cccc(-c2ccc3cnn(-c4cccc(C(F)(F)F)n4)c3c2)n1` (single isomer, unassigned) [Example 117, N-methyl-1-(6-(1-(6-(trifluoromethyl)pyridin-2-yl)-1H-indazol-6-yl)pyridin-2-yl)ethanamine] cannot be ordered by IC50: under 100 nM for the first, under 100 nM for the second.

`CC(N)c1cccc(-c2ccc3cnc(-c4cccc(CO)n4)n3c2)n1` (stereo not drawn) [Example 302, (6-(6-(6-(1-aminoethyl)pyridin-2-yl)imidazo[1,5-a]pyridin-3-yl)pyridin-2-yl)methanol] and `CCc1cccc(-n2ncc3ccc(-c4cccc(C(C)N)n4)cc32)n1` (stereo not drawn) [Example 120, 1-(6-(1-(6-ethylpyridin-2-yl)-1H-indazol-6-yl)pyridin-2-yl)ethanamine] cannot be ordered by IC50: under 100 nM for the first, under 100 nM for the second.

`CCC[C@H](N)c1cccc(-c2cc(C3CCCO3)c3cnn(-c4cccc(CO)n4)c3c2)n1` (stereo partly drawn) [Example 477, (6-(6-(6-((S)-1-aminobutyl)pyridin-2-yl)-4-(tetrahydrofuran-2-yl)-1H-indazol-1-yl)pyridin-2-yl)methanol] and `CCC[C@H](N)c1ccnc(-c2cc(OC)c3cnn(-c4cccc(CO)n4)c3c2)n1` [Example 574, (S)-(6-(6-(4-(1-aminobutyl)pyrimidin-2-yl)-4-methoxy-1H-indazol-1-yl)pyridin-2-yl)methanol] cannot be ordered by IC50: under 100 nM for the first, under 100 nM for the second.

Compared with `Nc1cncc(-c2ccc3cnn(-c4cccc(C(=O)O)n4)c3c2)c1` [Example 30, 6-(6-(5-aminopyridin-3-yl)-1H-indazol-1-yl)picolinic acid], `Cc1cccc(-n2ncc3ccc(-c4cc(N)cnc4O)cc32)n1` [Example 11, 5-amino-3-(1-(6-methylpyridin-2-yl)-1H-indazol-6-yl)pyridin-2-ol] is higher in IC50: 100 to 1000 nM for the first, 1000 to 10000 nM for the second. The first is the more potent here.

First: CC[C@@H](N)c1cccc(-c2ccc3cnn(-c4cccc(CO)n4)c3c2)n1 [Example 322, (R)-(6-(6-(6-(1-aminopropyl)pyridin-2-yl)-1H-indazol-1-yl)pyridin-2-yl)methanol]
Second: NC(=O)C(N)c1cccc(-c2ccc3cnn(-c4cccc(CO)n4)c3c2)n1 (stereo not drawn) [Example 561, 2-amino-2-(6-(1-(6-(hydroxymethyl)pyridin-2-yl)-1H-indazol-6-yl)pyridin-2-yl)acetamide]
The IC50 of the first is lower: under 100 nM for the first, 100 to 1000 nM for the second.

First: Cc1csc(-n2ncc3ccc(-c4cccc(C(C)N)n4)cc32)c1 (stereo not drawn) [Example 282, 1-(6-(1-(4-methylthiophen-2-yl)-1H-indazol-6-yl)pyridin-2-yl)ethanamine]
Second: Cc1cccc(-n2ncc3ccc(-c4ccc(Cl)c(C(C)N)n4)cc32)n1 (stereo not drawn) [Example 266, 1-(3-chloro-6-(1-(6-methylpyridin-2-yl)-1H-indazol-6-yl)pyridin-2-yl)ethanamine]
The IC50 of the first is higher: 1000 to 10000 nM for the first, 100 to 1000 nM for the second. The second is the more potent here.

`CNC(=O)c1cc(-c2cncc(N)c2)cc2c1cnn2-c1cccc(C(F)(F)F)n1` [Example 61, 6-(5-aminopyridin-3-yl)-N-methyl-1-(6-(trifluoromethyl)pyridin-2-yl)-1H-indazole-4-carboxamide] and `Nc1cncc(-c2ccc3cnc(-c4cccc(C(F)(F)F)n4)n3c2)c1` [Example 78, 5-(3-(6-(trifluoromethyl)pyridin-2-yl)imidazo[1,5-a]pyridin-6-yl)pyridin-3-amine] cannot be ordered by IC50: under 100 nM for the first, under 100 nM for the second.

First: Cc1cccc(-n2ncc3ccc(-c4cccc(CCC(F)(F)F)n4)cc32)n1 [Example 313, 1-(6-methylpyridin-2-yl)-6-(6-(3,3,3-trifluoropropyl)pyridin-2-yl)-1H-indazole]
Second: Cc1cccc(-n2ncc3ccc(-c4cccc(CN(C)C)n4)cc32)n1 [Example 14, N,N-dimethyl-1-(6-(1-(6-methylpyridin-2-yl)-1H-indazol-6-yl)pyridin-2-yl)methanamine]
The IC50 of the first is higher: 1000 to 10000 nM for the first, 100 to 1000 nM for the second.

Compared with `CC(N)c1ccc(F)c(-c2ccc3cnn(-c4cccc(CO)n4)c3c2)n1` (stereo not drawn) [Example 564, (6-(6-(6-(1-aminoethyl)-3-fluoropyridin-2-yl)-1H-indazol-1-yl)pyridin-2-yl)methanol], `Cc1cccc(-n2ncc3ccc(-c4cccc(C(N)CO)n4)cc32)n1` (stereo not drawn) [Example 271, 2-amino-2-(6-(1-(6-methylpyridin-2-yl)-1H-indazol-6-yl)pyridin-2-yl)ethanol] is lower in IC50: 100 to 1000 nM for the first, under 100 nM for the second. The second is the more potent here.

Compared with `Cc1cccc(-n2ncc3ccc(-c4ccc5c(n4)C(N)CCCC5)cc32)n1` (stereo not drawn) [Example 308, 2-(1-(6-methylpyridin-2-yl)-1H-indazol-6-yl)-6,7,8,9-tetrahydro-5H-cyclohepta[b]pyridin-9-amine], `Cc1cccc(-n2ncc3ccc(-c4cc(C(N)=O)ccn4)cc32)n1` [Example 201, 2-(1-(6-methylpyridin-2-yl)-1H-indazol-6-yl)isonicotinamide] is higher in IC50: 100 to 1000 nM for the first, over 10000 nM for the second. The first is the more potent here.

`CCC[C@H](N)c1cccc(-c2cc(OCCOC)c3cnn(-c4cncc(CO)n4)c3c2)n1` [Example 480, (S)-(6-(6-(6-(1-aminobutyl)pyridin-2-yl)-4-(2-methoxyethoxy)-1H-indazol-1-yl)pyrazin-2-yl)methanol] and `CCC[C@H](N)c1cccc(-c2cc(OC)c3cnn(-c4nccc(C(F)F)n4)c3c2)n1` [Example 572, (S)-1-(6-(1-(4-(difluoromethyl)pyrimidin-2-yl)-4-methoxy-1H-indazol-6-yl)pyridin-2-yl)butan-1-amine] cannot be ordered by IC50: under 100 nM for the first, under 100 nM for the second.

Compound `CCCC(N)c1cccc(-c2ccc3cnn(-c4cccc(C(N)=O)n4)c3c2)n1` (stereo not drawn) [Example 274, 6-(6-(6-(1-aminobutyl)pyridin-2-yl)-1H-indazol-1-yl)picolinamide] has an IC50 of under 100 nM.

For `CC(N)c1cccc(-c2ccc3cnn(-c4cn(C)cn4)c3c2)n1` (stereo not drawn) [Example 138, 1-(6-(1-(1-methyl-1H-imidazol-4-yl)-1H-indazol-6-yl)pyridin-2-yl)ethanamine], the IC50 was 100 to 1000 nM and 1000 to 10000 nM.
